In patent EP2072511A1 (INSERM (Institut National de la Santé et de la Recherche …, priority 2007, dated 2009):

Legend:
[1] = target: T1, PrP^Sc from a prion-infected cellular lysate (Mus musculus, UniProt P04925); assay: biochemical; details: 1 h, read-out: amplification of the oligomerization in cellular extract
[2] = target: PrP^Sc from infected N2a58/22L cells (Mus musculus, UniProt P04925); type: cell-based, murine
[3] = target: T1, PrP^Sc from a prion-infected cellular lysate

T1 sequence (P04925 23-230 limits assumed): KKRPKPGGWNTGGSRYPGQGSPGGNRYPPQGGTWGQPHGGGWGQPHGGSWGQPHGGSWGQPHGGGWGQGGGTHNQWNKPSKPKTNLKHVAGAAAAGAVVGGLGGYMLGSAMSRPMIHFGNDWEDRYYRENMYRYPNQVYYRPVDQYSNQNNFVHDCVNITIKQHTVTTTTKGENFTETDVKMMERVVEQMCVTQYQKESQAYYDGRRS
Sequence of PrP^Sc from infected N2a58/22L cells (P04925 23-230 limits assumed): as above

| SMILES | fold induction at 1 µM [1] | amount of oligomeric forms observed, compared with compound T 1 or T2 under the same conditions [2] | dosis for which the saturation of the signal (effect of oligomerisation) is achieved [2] | concentration at which the compound is efficient (oligomerization on cellular extract) [3] |
| --- | --- | --- | --- | --- |
| Nc1nc(N)nc(-c2ccc(-c3ccc(-c4ccc(-c5ccc(-c6nc(N)nc(N)n6)s5)s4)s3)s2)n1 [compound I, 6,6'-(2,2':5',2":5",2'''-quaterthiophene-5,5'''-diyl)bis(1,3,5-triazine-2,4-diamine)] | ≥ 100 | much greater | 2.5 µM |  |
| CSc1nccc(-c2ccc(Br)s2)n1 [T1] |  |  |  | ≥ 312 µM |
